Measurements published in patent US9597297B2, “Combination of pilocarpin and methimazol for treating Charcot-Marietooth disease and related disorders” (PHARNEXT, priority 2008, dated 2017).

Columns and labels:
[1] = system: PMP22 mRNA; test: PMP22 mRNA expression in primary rat Schwann cells after 24 hrs drug incubation; assay type: cell-based
Procedure: Vials of rat Schwann cells (SC) primary culture (Sciencell # R1700) are defrosted and seeded at the density of 10,000 cells/cm2 in “Sciencell Schwann cell medium” (basal medium from Sciencell # R1701) in poly-L-lysine pre-coated 75 cm^2 flasks. The culture medium is composed of basal medium, 5% Fetal Bovine Serum (3H-Biomedical AB #1701-0025), 1% Schwann cell growth supplement (3H Biomedical AB #1701-1752), 1% Gentamicin (Sigma #G1397) and 10 μM of Forskolin (Sigma # F6886) to promote their proliferation.
After reaching confluency (4 to 10 days depending on cell batch), Schwann cells are purified by gentle agitation or by thy1.1 immunopanning that allow SC isolation from adherent fibroblasts, to produce cultures that are at least 95% pure. SC are then counted (Tryptan blue method) and seeded in poly-L-lysine pre-coated 75 cm^2 flask in the same SC medium. At confluency, cells are rinsed, trypsinized (trypsin-EDTA 1× diluted from Invitrogen #1540054), diluted in PBS without calcium and magnesium) counted and platted in 12 well-dishes (140 000 cells/well) in Sciencell Schwann cell medium with 5% of FBS, 1% of cell growth supplement (CGS), 40 μg/ml of gentamicin and 4 μM Forskolin.
Primary Schwann cell cultures (SC) are established from Sprague-Dawley newborn rats (between P0 and P2) sciatic nerves. All newborn rats are sacrificed and isolated in a Petri dish. Dissection is performed under sterile conditions.
The dorsal skin is removed from the hind paw and the lower torso. The sciatic nerve is isolated and transferred to a culture dish containing ice-cold Leibovitz (L15, Invitogen #11415) supplemented with 1% penicillin/streptomycin solution (50 UI/ml and 50 μg/ml, respectively; Invitrogen #15070) and 1% of bovine serum albumin (BSA, Sigma A6003). Both nerves per rats are transferred in a 15 ml tube containing ice-cold L15. The L15 medium is then removed and replaced by 2.4 ml of DMEM (Invitrogen #21969035) with 10 mg/ml of collagenase ([…]). Nerves are incubated in this medium for 30 minutes at 37° C. The medium is then removed and both nerves are dissociated by trypsin (10% trypsin EDTA 10×, Invitrogen #15400054) diluted in PBS without calcium and magnesium (Invitrogen #2007-03) for 20 min at 37° C. […] Cells are counted (Tryptan blue method) and seeded in Falcon 100 mm Primaria tissue culture plates at the density of 5·10^5 to 10^6 cells/dish. […]
After 8 days of culture (4 to 10 days depending on cell batches), Schwann cells reach confluency and the culture, containing a large amount of contaminating fibroblasts, is purified by the thy1.1 immunopanning method. […] Once they reach confluency, cells are rinsed, trypsinized (trypsin-EDTA), counted and platted in 12 well-dishes (100 000 cells/well). […]

[2] = system: CMT transgenic rat model (PMP22 transgenic rats); test: Electrophysiology: sensitive nerve potential amplitude (SNAP) in CMT rats; assay type: in vivo; conditions: CMT TG rats treated 20 weeks vs TG placebo
Procedure: When appropriate, the rats are subjected to electrophysiological evaluation: the sensitive nerve conduction velocity as well as latencies and potential amplitude are measured.
NCV measurement and potential acquisition (subcutaneous) were performed with the help of the chain composed of an amplificator (AM System 1700 and/or EMG-UTC), a stimulator (Havard apparatus 223) and a computer equipped with an acquisition card and a software for acquisition (SPATOL) and for the signal treatment (CALVISE).
Animals were anesthetized using ketamine/xalazine and maintained on the thermostated plate at 37° C. throughout the test (anaesthetics were supplemented as needed). Stimulating silver needle electrodes were inserted in the proximal part of the tail. The recording electrode was inserted subcutaneously through about 1 mm of skin in the distal part of the tail (4 and 6 cm from the stimulating electrode). Constant-current square-wave stimuli, […] in duration, were administered at a frequency of 0.3 per second. Responses, amplified 5.000-20.000, were visualized and collected on a computer based data acquisition system. Latencies were measured at each wave onset (defined as the first clearly identifiable deflection from the baseline). Peak to peak amplitudes of the largest deflections were calculated to determine maximum amplitude. For each recording, measurements were performed on the averaged responses to at least ten identical stimuli.
Sensory related conduction velocity (SNCV) was calculated by division of the distance between the stimulating cathodes by the difference between the correspondent latencies obtained from the two sites of stimulation.

| SMILES | dose inducing the most important PMP22 mRNA down-regulation ([1]; primary Schwann cells) | PMP22 mRNA level ([1]; primary rat Schwann cells, 1 mM or 1 μM of compound A) | SNAP (sensitive nerve potential amplitude), distal portion of the tail [2] | PMP22 mRNA level of expression ([1]; primary Schwann cells, low doses 10 nM and 50 nM) | SNAP (sensitive nerve potential amplitude), distal portion of the tail ([2]; listed as compound B) |
| --- | --- | --- | --- | --- | --- |
| Cn1cc[nH]c1=S [methimazole, 1-methyl-3H-imidazole-2-thione] | lower dose | significantly decreased | significantly improved | – | – |
| CC[C@@H]1C(=O)OC[C@@H]1Cc1cncn1C [pilocarpine, (3S,4R)-3-ethyl-4-[(3-methylimidazol-4-yl)methyl]oxolan-2-one] | 1 µM | – | failed to reach statistical significance | significantly down-regulated | approaching the nominal 5% threshold for significance |
